From patent publication US20260306638A1, “COMPOUNDS AND USES THEREOF” (FOGHORN THERAPEUTICS INC., priority 2023, published 2026)

Assays:
HiBit-BRM fusion protein = target: T1, HiBit-BRM fusion protein (Homo sapiens, UniProt P51531); test: HiBiT-BRM degradation in a stable HeLa cell line (cell-based degradation assay, Nano-Glo HiBiT Lytic Detection); details: HeLa cells, 24 h; for Dmax: human, 30 μM top dose, read-out: BRM HiBit Degradation Maximum
T1 construct: HiBiT; expressed in transfected cells
T1 sequence (P51531 whole entry, the tested form may be a part): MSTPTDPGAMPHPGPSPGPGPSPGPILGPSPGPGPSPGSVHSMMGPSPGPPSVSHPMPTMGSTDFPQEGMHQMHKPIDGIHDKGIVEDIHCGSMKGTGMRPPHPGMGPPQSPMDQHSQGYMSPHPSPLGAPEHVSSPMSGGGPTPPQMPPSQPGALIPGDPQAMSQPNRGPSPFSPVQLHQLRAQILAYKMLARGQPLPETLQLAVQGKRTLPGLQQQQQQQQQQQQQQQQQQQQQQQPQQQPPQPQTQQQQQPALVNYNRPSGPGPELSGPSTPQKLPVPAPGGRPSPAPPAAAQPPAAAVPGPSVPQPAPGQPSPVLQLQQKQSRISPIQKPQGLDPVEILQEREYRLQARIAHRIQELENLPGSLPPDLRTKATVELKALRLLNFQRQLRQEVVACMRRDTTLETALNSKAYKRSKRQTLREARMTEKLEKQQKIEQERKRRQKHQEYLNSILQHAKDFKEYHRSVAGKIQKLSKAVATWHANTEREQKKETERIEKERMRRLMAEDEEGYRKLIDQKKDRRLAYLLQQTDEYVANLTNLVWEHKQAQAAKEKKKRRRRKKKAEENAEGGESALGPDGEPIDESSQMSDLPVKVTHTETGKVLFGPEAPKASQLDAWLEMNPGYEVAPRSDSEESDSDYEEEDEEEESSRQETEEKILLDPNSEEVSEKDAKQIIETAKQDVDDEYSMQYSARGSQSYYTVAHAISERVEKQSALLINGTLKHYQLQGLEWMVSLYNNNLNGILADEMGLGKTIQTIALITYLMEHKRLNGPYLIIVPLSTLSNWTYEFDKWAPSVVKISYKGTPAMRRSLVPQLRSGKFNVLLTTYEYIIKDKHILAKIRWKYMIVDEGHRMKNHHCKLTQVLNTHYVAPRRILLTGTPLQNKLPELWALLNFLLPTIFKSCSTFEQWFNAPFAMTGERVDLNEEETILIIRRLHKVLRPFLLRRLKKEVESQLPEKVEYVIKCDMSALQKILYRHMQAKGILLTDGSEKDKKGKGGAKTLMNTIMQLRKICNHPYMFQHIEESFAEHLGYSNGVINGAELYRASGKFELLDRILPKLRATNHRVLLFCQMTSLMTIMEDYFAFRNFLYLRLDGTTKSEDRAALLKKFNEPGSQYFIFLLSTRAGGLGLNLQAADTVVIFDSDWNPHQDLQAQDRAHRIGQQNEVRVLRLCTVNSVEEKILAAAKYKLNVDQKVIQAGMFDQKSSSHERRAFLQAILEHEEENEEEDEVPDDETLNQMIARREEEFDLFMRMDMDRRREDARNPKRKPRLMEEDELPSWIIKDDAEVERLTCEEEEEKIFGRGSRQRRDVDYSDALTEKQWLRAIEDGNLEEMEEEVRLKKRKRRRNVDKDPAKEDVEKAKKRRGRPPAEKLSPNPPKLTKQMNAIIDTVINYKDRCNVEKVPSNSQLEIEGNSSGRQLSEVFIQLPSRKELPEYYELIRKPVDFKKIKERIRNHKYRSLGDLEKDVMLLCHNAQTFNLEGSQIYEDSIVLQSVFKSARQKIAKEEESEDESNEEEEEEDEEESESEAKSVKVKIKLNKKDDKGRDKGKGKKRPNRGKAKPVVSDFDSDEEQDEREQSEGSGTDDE
Experimental: (§1) Procedure: A stable HeLa cell line expressing HiBiT-BRM was generated. On day 0, 5000 cells were seeded in 40 μL of media into each well of 384-well cell culture plates. On day 1, cells were treated with 120 nL DMSO or 120 nL of 3-fold serially DMSO-diluted compounds (10 points in duplicate with 30 µM as final top dose). Subsequently plates were incubated for 24 h in a standard tissue culture incubator and equilibrated at room temperature for 15 minutes. Nano-Glo HiBiT Lytic Detection System (Promega N3050) reagent was freshly prepared and 20 μl was added to each well. Upon addition of this LgBit-containing reagent, the HiBIT and LgBiT proteins associate to form the luminescent NanoBiT luciferase. The plates were shaken for 10 minutes at room temperature and the bioluminescence read using an En Vision plate reader (PerkinElmer).
(§2) The degradation % was calculated using the following formula: % degradation=100%−100%×(Lumsample−LumLC)/(LumHC−LumLC). DMSO treated cells are employed as High Control (HC) and 2 μM of a known BRM/BRG1 degrader standard treated cells are employed as Low Control (LC).

[1] = target: T2, HiBit-BRG1 fusion protein (Homo sapiens, UniProt P51532); test: HiBit-BRG1 degradation in a stable HeLa cell line expressing HiBit-BRG1 and LgBit (cell-based degradation assay); details: HeLa cells, 24 h; for Dmax: human, 30 μM top dose, read-out: BRG1 HiBit Degradation Maximum
T2 construct: HiBiT; expressed in transfected cells
T2 sequence (P51532 whole entry, the tested form may be a part): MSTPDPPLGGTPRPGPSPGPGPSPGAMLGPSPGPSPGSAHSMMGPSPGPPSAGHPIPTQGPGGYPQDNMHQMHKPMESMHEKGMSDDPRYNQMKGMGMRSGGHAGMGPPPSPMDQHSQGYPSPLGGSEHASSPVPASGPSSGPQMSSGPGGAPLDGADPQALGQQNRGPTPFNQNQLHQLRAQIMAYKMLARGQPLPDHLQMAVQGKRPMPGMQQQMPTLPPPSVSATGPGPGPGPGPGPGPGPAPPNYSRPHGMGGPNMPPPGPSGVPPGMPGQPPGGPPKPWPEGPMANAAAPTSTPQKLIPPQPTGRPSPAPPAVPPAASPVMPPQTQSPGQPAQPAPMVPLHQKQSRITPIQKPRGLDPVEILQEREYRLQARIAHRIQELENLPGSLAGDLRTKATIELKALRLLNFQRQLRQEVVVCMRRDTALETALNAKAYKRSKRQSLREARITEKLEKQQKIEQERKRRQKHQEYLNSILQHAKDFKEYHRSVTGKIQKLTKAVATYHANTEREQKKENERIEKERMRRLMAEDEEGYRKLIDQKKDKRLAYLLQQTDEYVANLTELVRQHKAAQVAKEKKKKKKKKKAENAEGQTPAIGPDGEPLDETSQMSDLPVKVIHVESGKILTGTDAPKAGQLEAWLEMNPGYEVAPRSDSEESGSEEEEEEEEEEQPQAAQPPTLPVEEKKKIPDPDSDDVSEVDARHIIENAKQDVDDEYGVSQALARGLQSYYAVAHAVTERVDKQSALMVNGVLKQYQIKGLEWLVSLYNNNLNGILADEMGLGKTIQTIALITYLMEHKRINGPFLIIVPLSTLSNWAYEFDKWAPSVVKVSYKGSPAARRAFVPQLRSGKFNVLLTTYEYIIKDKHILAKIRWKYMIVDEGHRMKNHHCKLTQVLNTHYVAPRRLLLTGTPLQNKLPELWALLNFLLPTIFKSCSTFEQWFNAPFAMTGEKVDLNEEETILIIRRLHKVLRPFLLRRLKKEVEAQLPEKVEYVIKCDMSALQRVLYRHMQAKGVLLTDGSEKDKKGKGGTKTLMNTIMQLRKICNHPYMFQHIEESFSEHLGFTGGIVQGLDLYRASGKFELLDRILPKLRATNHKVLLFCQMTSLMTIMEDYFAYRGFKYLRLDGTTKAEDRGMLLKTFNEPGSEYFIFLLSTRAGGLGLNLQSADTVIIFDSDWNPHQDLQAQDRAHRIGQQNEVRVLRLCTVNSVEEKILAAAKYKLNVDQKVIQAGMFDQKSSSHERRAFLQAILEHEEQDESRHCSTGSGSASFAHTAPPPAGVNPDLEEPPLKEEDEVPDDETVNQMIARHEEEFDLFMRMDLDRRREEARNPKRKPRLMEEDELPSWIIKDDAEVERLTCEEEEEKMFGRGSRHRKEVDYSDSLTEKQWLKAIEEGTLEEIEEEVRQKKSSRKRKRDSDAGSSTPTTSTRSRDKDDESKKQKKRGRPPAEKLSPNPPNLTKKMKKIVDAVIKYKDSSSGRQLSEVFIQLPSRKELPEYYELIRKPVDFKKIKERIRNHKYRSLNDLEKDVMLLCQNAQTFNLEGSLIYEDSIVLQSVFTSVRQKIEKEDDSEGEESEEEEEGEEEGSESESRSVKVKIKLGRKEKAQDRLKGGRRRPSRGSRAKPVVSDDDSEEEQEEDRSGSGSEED
Experimental: as §1
For measurement of BRG1 degradation, a stable HeLa cell line expressing HiBit-BRG1 and LgBit was generated. The same protocol as above was then followed.
as §2

SMILES: Cc1ncsc1-c1ccc([C@H](C)NC(=O)[C@@H]2C[C@@H](O)CN2C(=O)[C@@H](c2cc(N3CC4(C3)CN(c3cc5nnc(-c6ccccc6O)cc5n(C)c3=O)C4)no2)C(C)C)cc1 (single isomer, unassigned) [Compound 4]
- DC50 (HiBit-BRM fusion protein): < 10 nM
- Dmax (HiBit-BRM fusion protein): ≥ 75%
- Dmax [1]: < 50%

SMILES: Cc1ncsc1-c1ccc([C@H](C)NC(=O)[C@@H]2C[C@@H](O)CN2C(=O)[C@@H](c2cc(N3CC4(C3)CN(c3ccc5nnc(-c6ccccc6O)cc5n3)C4)no2)C(C)C)cc1 [Compound 1, (2S,4R)-4-hydroxy-1-[(2R)-2-(3-{6-[3-(2-hydroxyphenyl)pyrido[3,2-c]pyridazin-6-yl]-2,6-diazaspiro[3.3]heptan-2-yl}-1,2-oxazol-5-yl)-3-methylbutanoyl]-N-[(1S)-1-[4-(4-methyl-1,3-thiazol-5-yl)phenyl]ethyl]pyrrolidine-2-carboxamide]
- DC50 (HiBit-BRM fusion protein): < 10 nM
- Dmax (HiBit-BRM fusion protein): ≥ 75%
- Dmax [1]: < 50%

SMILES: Cc1ncsc1-c1ccc([C@H](C)NC(=O)[C@@H]2C[C@@H](O)CN2C(=O)[C@H](C(C)C)n2cc(-c3ccc4nnc(-c5ccccc5O)cc4n3)nn2)cc1 [Compound 2, (2S,4R)-4-hydroxy-1-[(2S)-2-{4-[3-(2-hydroxyphenyl)pyrido[3,2-c]pyridazin-6-yl]-1,2,3-triazol-1-yl}-3-methylbutanoyl]-N-[(1S)-1-[4-(4-methyl-1,3-thiazol-5-yl)phenyl]ethyl]pyrrolidine-2-carboxamide]
- DC50 (HiBit-BRM fusion protein): < 10 nM
- Dmax (HiBit-BRM fusion protein): ≥ 75%
- DC50 ([1]; read-out: BRMG1 HiBit Degradation DC50): < 10 nM
- Dmax [1]: ≥ 75%

SMILES: Cc1nc2cc(-c3ccccc3O)nnc2cc1N1CC2(CN(c3cc([C@H](C(=O)N4C[C@H](O)C[C@H]4C(=O)N[C@@H](C)c4ccc(-c5scnc5C)cc4)C(C)C)on3)C2)C1 [Compound 3, (2S,4R)-4-hydroxy-1-[(2R)-2-(3-{6-[3-(2-hydroxyphenyl)-6-methylpyrido[3,2-c]pyridazin-7-yl]-2,6-diazaspiro[3.3]heptan-2-yl}-1,2-oxazol-5-yl)-3-methylbutanoyl]-N-[(1S)-1-[4-(4-methyl-1,3-thiazol-5-yl)phenyl]ethyl]pyrrolidine-2-carboxamide]
- DC50 (HiBit-BRM fusion protein): < 10 nM
- Dmax (HiBit-BRM fusion protein): ≥ 75%
- Dmax [1]: < 50%
